Data from patent publication US6117878A, “8-phenyl- or 8-cycloalkyl xanthine antagonists of A2B human adenosine receptors” (priority 1998, dated 2000).
Entries after “also recorded” stand apart in the source; their conditions may differ.

Tests used:
[1] = target: T1, recombinant human A2B adenosine receptors (Homo sapiens, UniProt P29275); assay: Competition binding screen, A2B (Table 1); design: expressed in transfected cells; host or cells: cells expressing the recombinant receptor
T1 sequence (P29275 1-332): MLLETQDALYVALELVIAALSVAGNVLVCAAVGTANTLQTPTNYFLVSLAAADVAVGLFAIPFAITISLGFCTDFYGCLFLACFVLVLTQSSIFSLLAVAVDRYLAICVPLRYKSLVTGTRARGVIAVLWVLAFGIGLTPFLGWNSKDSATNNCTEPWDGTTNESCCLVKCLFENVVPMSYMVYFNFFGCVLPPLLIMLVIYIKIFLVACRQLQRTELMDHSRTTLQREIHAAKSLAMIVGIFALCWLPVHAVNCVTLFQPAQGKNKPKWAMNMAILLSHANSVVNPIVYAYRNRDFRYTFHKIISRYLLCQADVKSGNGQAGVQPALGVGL
Excerpt: (§1) This was done in competition binding assays using recombinant human A1, A2A, A2B or A3 adenosine receptors, similar to that illustrated in FIGS. 2A and 2B.

[2] = target: T2, recombinant human A3 adenosine receptors (Homo sapiens, UniProt P0DMS8); assay: Competition binding screen, A3 (Table 1)
T2 construct: expressed in transfected cells; host or cells: cells expressing the recombinant receptor
T2 sequence (P0DMS8 1-318): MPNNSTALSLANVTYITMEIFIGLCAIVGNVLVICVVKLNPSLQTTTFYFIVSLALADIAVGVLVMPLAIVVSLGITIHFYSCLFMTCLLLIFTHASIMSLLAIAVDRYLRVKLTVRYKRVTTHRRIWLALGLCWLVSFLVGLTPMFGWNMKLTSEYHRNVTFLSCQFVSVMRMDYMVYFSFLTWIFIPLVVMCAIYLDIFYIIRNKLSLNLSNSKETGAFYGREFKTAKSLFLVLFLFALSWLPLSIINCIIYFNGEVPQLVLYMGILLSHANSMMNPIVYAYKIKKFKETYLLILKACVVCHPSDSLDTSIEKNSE
Excerpt: (§2) A series of compounds was screened to identify potent A2B selective antagonists. This was done in competition binding assays using recombinant human A1, A2A, A2B or A3 adenosine receptors, similar to that illustrated in FIGS. 2A and 2B.

[3] = target: T3, recombinant human A2A adenosine receptors (Homo sapiens, UniProt P29274); assay: Competition binding screen, A2A (Table 1)
T3 construct: expressed in transfected cells
Excerpt: as §1

[4] = target: T4, recombinant human A1 adenosine receptors (Homo sapiens, UniProt P30542); assay: Competition binding screen, A1 (Table 1)
T4 construct: expressed in transfected cells
T4 sequence (P30542 1-326): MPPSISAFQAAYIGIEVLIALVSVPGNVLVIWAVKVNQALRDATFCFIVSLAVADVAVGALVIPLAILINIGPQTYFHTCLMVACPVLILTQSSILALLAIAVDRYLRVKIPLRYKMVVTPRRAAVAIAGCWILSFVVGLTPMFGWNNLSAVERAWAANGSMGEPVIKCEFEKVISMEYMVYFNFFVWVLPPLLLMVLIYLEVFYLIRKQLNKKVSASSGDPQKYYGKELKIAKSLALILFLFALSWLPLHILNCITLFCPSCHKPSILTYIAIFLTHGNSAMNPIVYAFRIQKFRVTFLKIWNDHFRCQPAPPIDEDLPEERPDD
Excerpt: as §2

[5] = target: T5, rhA2B adenosine receptors (Homo sapiens, UniProt P29275); assay: NECA-stimulated cyclic AMP accumulation in HEK 293 cells transfected with rhA2B adenosine receptors, Schild analysis; type: cell-based; details: cAMP, cells expressing rhA2B
T5 construct: expressed in transfected cells; host or cells: HEK 293 cells, stably transfected
T5 sequence (P29275 1-332): T1 sequence (P29275 1-332)
Excerpt: Agonists were used to modulate cAMP in HEK 293 cells stably transfected the rhA2B adenosine receptors or rhA3 adenosine receptors.

[6] = target: T1, recombinant human A2B adenosine receptors; assay: Calcium mobilization in HEK-293 cells transfected with recombinant human A2B adenosine receptors (FURA); type: cell-based; design: expressed in transfected cells; host or cells: cells expressing the recombinant receptor
Protocol: The activation of the phospholipase C pathway leads to intracellular calcium mobilization.
Calcium mobilization was measured in cells preloaded with FURA.

[7] = system: human HMC-1 mast cells; assay: Cyclic AMP accumulation in HMC-1 mast cells (radioimmunoassay); type: cell-based; details: FIG. 1B
Protocol: Functional Responses Of Human HMC-1 Mast Cells to NECA and IB-MECA
In tests as described in "Canine Mast Cell Adenosine Receptors: Cloning and Expression of the A3 Receptor and Evidence that Degranulation is Mediated by the A2B Receptor," Molecular Pharmacology, 52:1-15 (1997) to, Auchampapch et al., that reference being incorporated herein by reference, intact cells were treated with the A3-selective agonist IB-MECA and the nonselective agonist NECA.
FIGS. 1A and 1B show (A) Intracellular Ca^2+ accumulation measured in cells pretreated with the Ca^2+ -sensitive fluorescent reporter, FURA and (B) Cyclic AMP accumulation measured by radioimmunoassay. The results are typical of triplicate experiments.

[8] = target: T1, recombinant human A2B adenosine receptors; assay: IP3 generation in HEK 293 cells transfected with recombinant human A2B adenosine receptors
[9] = system: human HMC-1 mast cells; assay: Intracellular Ca2+ accumulation in HMC-1 mast cells (FURA); type: cell-based; details: FIG. 1A
[10] = system: adenosine receptors; details: cited from earlier work
[11] = target: T1, recombinant human A2B adenosine receptors; assay: Competition for [3H]DPX binding to rhA2B adenosine receptors (Example 2); design: expressed in transfected cells; host or cells: cells expressing the recombinant receptor
[12] = target: T2, recombinant human A3 adenosine receptors; assay: Competition radioligand binding to rhA3 adenosine receptors (Example 2); details: other subtypes than A2B; FIG. 2 and Table 1

T3 sequence (P29274 whole entry): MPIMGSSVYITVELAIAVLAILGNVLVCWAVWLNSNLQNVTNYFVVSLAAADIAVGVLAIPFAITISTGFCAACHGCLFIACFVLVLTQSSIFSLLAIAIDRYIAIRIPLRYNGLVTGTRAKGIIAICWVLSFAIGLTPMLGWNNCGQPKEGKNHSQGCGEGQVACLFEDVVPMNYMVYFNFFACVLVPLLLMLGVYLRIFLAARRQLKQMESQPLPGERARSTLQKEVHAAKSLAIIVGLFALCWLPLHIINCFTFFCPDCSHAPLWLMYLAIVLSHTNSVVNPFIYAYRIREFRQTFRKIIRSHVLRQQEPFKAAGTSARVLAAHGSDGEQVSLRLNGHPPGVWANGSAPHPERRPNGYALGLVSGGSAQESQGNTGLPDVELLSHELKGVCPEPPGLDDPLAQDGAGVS

Compound	Ki [1]	Ki [2]	Ki [3]	Ki [4]	Functional response to agonist [5]	Increase in intracellular Ca2+ content ([6]; human A2B transfected cells)	Stimulation of cyclic AMP accumulation ([7]; worded as canine mast cells)	Cyclic AMP accumulation ([7]; human mast cell line HMC-1)	Increase in IP3 formation ([8]; NECA at 10 μM, rhA2B transfected HEK 293)	Stimulation of calcium mobilization ([9]; worded as canine mast cells)	Intracellular Ca2+ accumulation / calcium mobilization ([9]; human mast cell line HMC-1)	Binding to adenosine receptors (literature) ([10]; Lunell et al.)	Block of adenosine receptors (literature) ([10]; enprofylline: therapeutic concentration range of 20-50 uM, examined at A1 and A2A only)	Affinity for human A2B versus human A3 adenosine receptors ([11]; competition binding, FIGS. 2A and 2B)	Block of recombinant human A2B adenosine receptors ([11]; therapeutic concentration range of 20-50 μM, FIG. 2 and Table 1)	Antagonism of other adenosine receptor subtypes [12]	Block of Ca2+ response induced by 1 μM NECA ([6]; 100 μM antagonist)	Block of increase in IP3 produced by 10 μM NECA ([8]; 250 μM antagonist)
O=C(O)C=Cc1ccc(-c2nc3c([nH]2)c(=O)n(CC2CCCCC2)c(=O)n3CC2CCCCC2)cc1 [BW-A493]	198 ± 52 nM	922 ± 399 nM	1520 ± 797 nM	4980 ± 553 nM	–	–	–	–	–	–	–	–	–	–	–	–	–	–
CCNC(=O)[C@H]1O[C@@H](n2cnc3c(N)ncnc32)[C@H](O)[C@@H]1O [NECA, 5-N-ethylcarboxamidoadenosine]	–	–	–	–	dose-dependent functional response	dose-dependent increase in intracellular Ca^2+ content	stimulates canine mast cells to mobilize calcium and to accumulate cyclic AMP	stimulates human mast cells to mobilize calcium and to accumulate cyclic AMP; also recorded: causes intracellular Ca^2+ and cyclic AMP accumulation	3.5 fold	stimulates canine mast cells to mobilize calcium	stimulates human mast cells to mobilize calcium; also recorded: causes intracellular Ca^2+ and cyclic AMP accumulation	–	–	–	–	–	–	–
CCCn1c(=O)[nH]c(=O)c2[nH]cnc21 [enprofylline]	–	–	–	156000 nM	–	–	–	–	–	–	–	bind weakly to adenosine receptors	found not to block adenosine receptors	higher affinities for human A2B adenosine receptors than for human A3 adenosine receptors	blocks recombinant human A2B adenosine receptors	much weaker antagonist of other adenosine receptor subtypes	totally blocks	able to block the increase in IP3
